A short description of data set [1]: Solubility measurement of RB and lipophilic derivatives of RB in PBS and 1-octanol. The format is physicochemical. As to the method: The sonochemical sensitizers of the invention, namely RB—COOH—Cn species (n being the number of carbon atoms in the straight alkyl group) were examined for their solubility in an aqueous solution and in an organic solvent. The aqueous solution used was a phosphate buffer solution (hereinafter, PBS) with a pH of 7.4 and the organic solvent used was 1-octanol.
First, saturated solutions of each RB—COOH—Cn in PBS and in 1-octanol were prepared at 25° C. and each solution was measured for its ultraviolet-visible absorption spectrum. Based on the molar absorptivity determined beforehand by measuring the ultraviolet-visible absorption spectrum of a solution having a known concentration, the agent concentration in the saturated solution was estimated.
For comparison, the starting material RB and two kinds of RB derivative, for which an attempt was made to increase the lipophilicity by a method other than that of the invention, namely rose bengal alkyl esters (hereinafter, RB—Cn, n being the number of carbon atoms in the alkyl group) and rose bengal fatty acid esters (hereinafter, RB—Cn—COOH, n being the number of carbon atoms in the methylene chain), were also subjected to solubility measurement.
In the solubility measurement, the respective derivatives having an equal number of carbon atoms in the alkyl group (n=7) were used.

The nature of data set [2]: Evaluation for contrast-enhancing effect (ultrasound imaging). The format is in vivo. The settings on record: dog, 5 mL of 0.1 mmol/L solution intravenously, 5 MHz linear probe, mode B. As to the method:
Using an ultrasound diagnostic system equipped with a linear probe with a central frequency of 5 MHz, 5 mL of the solution of RB—COOH—C7 obtained in Test Example 10 was intravenously administered to a dog (weighing 12 kg, 2 years old) while ultrasonically scanning the hepatic region of the dog with mode B. Immediately thereafter, 5 mL of physiological saline was administered. After administration, the hepatic artery and aorta were imaged and the imaging lasted for about 30 seconds.

The nature of data set [3]: Evaluation for bubble stability. The format is physicochemical. To be noted: 0.1 mmol/L in PBS (pH 7.4), 4 mL shaken 5 minutes. As to the method: Using a 0.1 mmol/L solution of RB—COOH—C7 in PBS (pH 7.4), the stability of bubbles was measured. 4 mL of the solution of RB—COOH—C7 was placed in a test tube having a length of […] and shaken on a shaker for 5 minutes and then the time until the disappearance of the bubbles was measured. PBS was used as a control.

The test system of data set [4] is murine experimental tumor Colone 26. The experiment in a line: Evaluation of the accumulation of RB—COOH—Cn in tumor tissues (fluorescence intensity ratio). The format is in vivo. The settings on record: tumor bearing CDF1 mice, intravenous, 10 mg/kg, until 120 minutes after administration, FIG. 3. As to the method: Tumor bearing mice were intravenously administered with RB or RB—Cn and, after the lapse of a predetermined period, tumor tissues were excised. The fluorescence spectrum of the agent extracted from the tumor tissues was measured and the concentration of the agent was estimated from the fluorescence intensity to thereby evaluate the accumulability in tumor tissues. Mice subjected to the test were 5-week male CDF1 mice one to two weeks after subcutaneous implantation of small pieces (e.g. 1 mm^3 pieces) of the murine experimental tumor Colone 26. The dose of the agent was 10 mg/kg and methanol or chloroform was used for the extraction.
Tumor bearing mice were intravenously administered with RB or RB—COOH—Cn and, after the lapse of a predetermined period, tumor tissues were excised. The fluorescence intensity of the tumor tissues was measured and the accumulability in tumor tissues was evaluated based on the ratio of that intensity and the fluorescence intensity of an internal standard (fluorescence intensity ratio). The mice used in the test and the dose of the agent were the same as in Test Example 3. As an example of the results, the relation between the time from agent administration to mice to tumor tissue excision and the fluorescence intensity ratio is shown in FIG. 3 for each of RB and RB—COOH—Cn species containing 2, 3, 7 or 15 carbon atoms in the alkyl group (RB—COOH—C2, RB—COOH—C3, RB—COOH—C7 and RB—COOH—C15).

Data set [5] can be described thus: Evaluation of the acoustic cavitation promoting effect (subharmonic signal upon ultrasound irradiation). To be noted: 0.1 mmol/L in PBS (pH 7.4), 0.5 MHz and 1 MHz, acoustic intensity 5 W/cm^2, 1 minute. As to the method: A 0.1 mmol/L solution of RB—Cn in PBS (pH 7.4, containing 1% DMF) was sealed in a polyethylene bag (30×25 mm, 0.03 mm thick) and irradiated with ultrasonic waves of 0.5 MHz and 1 MHZ simultaneously under conditions of an acoustic intensity of 5 or 10 W/cm^2 and an exposure time of 1 minute, using an experimental apparatus having the constitution shown in FIG. 4.
In FIG. 4, 10 indicates degassed water, 11—a water tank, 12—a polyethylene bag, 13—a sample solution, 14-1 and 14-2 each—a holdfast, 15—a hanger, 16—a hydrophone, 17—a supporter, 18—an ultrasound transducer, 19—a supporter, 20—a signal processor, 21—an amplifier, 22—a spectrum analyzer, 23—an amplifier, and 24—a wave generator.
The acoustic signals at the subharmonic (250 kHz) characteristic to acoustic cavitation were measured at one-second intervals using a focusing type hydrophone, the root mean square of the signal amplitudes during the irradiation period was calculated and this was used as an indication of acoustic cavitation.
For comparison, a 0.1 mmol/L solution of RB in PBS (pH 7.4) was also measured for subharmonic signals. […] For each of RB and the RB—Cn species containing 3, 6 or 18 carbon atoms in the alkyl group (RB—C3, RB—C6 and RB—C18), the relation between acoustic intensity and subharmonic intensity is shown in FIG. 6.
Using a 0.1 mmol/L solution of RB—COOH—Cn in PBS (pH 7.4), the acoustic cavitation promoting effect was evaluated in the same manner as in Test Example 5.
Using a 0.1 mmol/L solution of xanthene dye sensitizer—COOH—Cn in PBS (pH 7.4), the acoustic cavitation promoting effect was evaluated in the same manner as in Test Example 5.

Data set [6] in a line: Evaluation of the photosensitivity (photo-oxidation reaction of iodide). To be noted: light of 365 nm, DMF solution, FIG. 9 / FIG. 10. As to the method:
The photo-oxidation reaction of iodide as represented by Equation 4 was carried out in the presence of RB—Cn and the photosensitivity of the compound was evaluated.
A mixed solution composed of 2 mL of a 0.1 mol/L solution of potassium iodide in DMF and 1 mL of a 1 mmol/L solution of RB—Cn in DMF was placed in a glass dish (48 mm in diameter) and irradiated with light of 365 nm for a predetermined period. The absorbance, at 350 nm, of the sample was measured before and after exposure. 350 nm is the absorption maximum wavelength of I3^—. Based on the absorbance (A), the concentration of I3^— was calculated using Equation 5.
The procedure of Test Example 8 was followed in the presence of RB—COOH—Cn.

The structures appear in SMILES notation. In brackets after ≈: the same amount, converted by molar mass.

For the compound `O=C(O)CCCCCCCOC(=O)c1c(Cl)c(Cl)c(Cl)c(Cl)c1-c1c2cc(I)c(=O)c(I)c-2oc2c(I)c(O)c(I)cc12` [RB—COOH—C7, Rose bengal-α-carboxyheptyl ester], in data set [1] (1-octanol), the “solubility in the organic solvent relative to that of RB—C7—COOH” value is on record as “about 5 times”. For the same compound, in data set [1] (25° C.), the “solubility in 1-octanol (organic solvent) relative to the solubility of RB” value is reported as 120 times. In data set [1] (PBS (pH 7.4), 25° C.), the “solubility in the aqueous solution relative to that of RB—C7” value is reported as 83 times. In addition, the “solubility in PBS (pH 7.4)” value in data set [1] (saturated solution at 25° C., aqueous solution) amounted to 0.83 mmol/l. The “solubility in 1-octanol” value in data set [1] (saturated solution at 25° C., organic solvent) came out at 12 mM (≈ 13.4 mg/mL). Further, the “duration of imaging of hepatic artery and aorta” value in data set [2] was “about 30 seconds”. For the same compound, the “time bubbles remain after shaking” value in data set [3] was “about 120 seconds”. The “occurrence/concentration in tumor tissues (fluorescence intensity ratio to internal standard)” value in data set [4] is “higher than that of RB”. Besides, the subharmonic generation entry in data set [5] is recorded as “observed”. Besides, the “relation between light exposure time and yield in photo-oxidation of iodide” value in data set [6] is reported as “almost proportional to the exposure time”.
